# Experimental data reported in US8551516B2, “Administration of non-oral androgenic steroids to women” (Actavis, Inc., priority 1999, dated 2013).
# Assays:
# [1] = Pharmacokinetic study of testosterone transdermal matrix patch in surgically menopausal women: total and free testosterone; type: in vivo, human; details: 300 mcg/day patch; for concentration at 3.5 day: female, human, serum, time-average change from baseline, mean±SEM
# Procedure: One group had received no estrogen replacement therapy (ERT) for at least one month, the second group was receiving transdermal estadiol (E2) at a dosage of 0.1 mg/day, and the third group was receiving oral conjugated equine estrogens (CEE) at a dosage of 1.25 mg/day. […] The resultant hormone data (mean±SEM) for the three groups of surgically menopausal women participating in the clinical study is summarized in Table 2 below.
# It should be noted that the normal range for SHBG levels is 36 to 185 nmol/L using the Endocrine Sciences assay.
# [2] = Estimated testosterone delivery rate for a given increase in free testosterone, power-law regression of FIG. 2; type: in vivo, human
# [3] = test system: sexual function, mood and well-being; assay: Example 1: 12-week coadministration of oral estrogen and transdermal testosterone, sexual function, mood and well-being; type: in vivo, human; details: transdermal patch 300 mcg/day twice weekly plus oral Premarin 0.625 to 2.5 mg daily; after 12 weeks; surgically menopausal women
# Text: The duration of coadministration was 12 weeks.
# [4] = Example 1: serum hormone levels on the regimen; details: Example 1 regimen; for bioavailability: female, human, in vivo
# Procedure: The estrogen consisted of conjugated equine estrogen (Premarin® tablets) at a daily dose of 0.625 to 2.5 mg. […] The duration of coadministration was 12 weeks.
# [5] = molecular target: T1, sex hormone binding globulin (SHBG) (Homo sapiens, UniProt P04278); details: adapted from Dunn et al. 1981; human plasma; cited from earlier work
# T1 sequence (P04278 30-402): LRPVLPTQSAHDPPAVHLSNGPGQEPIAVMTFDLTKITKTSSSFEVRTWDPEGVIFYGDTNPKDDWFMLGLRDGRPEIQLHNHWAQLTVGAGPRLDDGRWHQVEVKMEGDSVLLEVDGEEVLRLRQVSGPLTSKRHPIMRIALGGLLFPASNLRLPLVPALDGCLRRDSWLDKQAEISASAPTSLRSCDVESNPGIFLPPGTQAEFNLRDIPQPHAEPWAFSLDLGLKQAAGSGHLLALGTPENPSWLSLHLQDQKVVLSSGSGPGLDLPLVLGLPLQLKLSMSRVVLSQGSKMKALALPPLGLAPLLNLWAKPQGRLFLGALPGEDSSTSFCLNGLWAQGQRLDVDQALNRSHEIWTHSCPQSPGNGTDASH
# [6] = Predicted change in total testosterone, power-law regression of FIG. 1; details: for concentration at 3.5 day: human, serum, other: transdermal
# [7] = Change in FT 1 pg/mL, SHBG 50 nmol/L
# [8] = Change in FT 1 pg/mL, SHBG 84 nmol/L
# [9] = Change in FT 1 pg/mL, SHBG 100 nmol/L
# [10] = Change in FT 1 pg/mL, SHBG 200 nmol/L
# [11] = Change in FT 1 pg/mL, SHBG 400 nmol/L
# [12] = Change in FT 1 pg/mL, SHBG 600 nmol/L
# [13] = Change in FT 1 pg/mL, SHBG 700 nmol/L
# [14] = Change in FT 2.5 pg/mL, SHBG 50 nmol/L
# [15] = Change in FT 2.5 pg/mL, SHBG 84 nmol/L
# [16] = Change in FT 2.5 pg/mL, SHBG 100 nmol/L
# [17] = Change in FT 2.5 pg/mL, SHBG 200 nmol/L
# [18] = Change in FT 2.5 pg/mL, SHBG 400 nmol/L
# [19] = Change in FT 2.5 pg/mL, SHBG 600 nmol/L
# [20] = Change in FT 2.5 pg/mL, SHBG 700 nmol/L
# [21] = Change in FT 5 pg/mL, SHBG 50 nmol/L
# [22] = Change in FT 5 pg/mL, SHBG 84 nmol/L
# [23] = Change in FT 5 pg/mL, SHBG 100 nmol/L
# [24] = Change in FT 5 pg/mL, SHBG 200 nmol/L
# [25] = Change in FT 5 pg/mL, SHBG 400 nmol/L
# [26] = Change in FT 5 pg/mL, SHBG 600 nmol/L
# [27] = Change in FT 5 pg/mL, SHBG 700 nmol/L
# [28] = Change in FT 10 pg/mL, SHBG 50 nmol/L
# [29] = Change in FT 10 pg/mL, SHBG 84 nmol/L
# [30] = Change in FT 10 pg/mL, SHBG 100 nmol/L
# [31] = Change in FT 10 pg/mL, SHBG 200 nmol/L
# [32] = Change in FT 15 pg/mL, SHBG 50 nmol/L
# [33] = Change in FT 15 pg/mL, SHBG 84 nmol/L
# [34] = Change in FT 15 pg/mL, SHBG 100 nmol/L
# [35] = Change in FT 15 pg/mL, SHBG 200 nmol/L
# [36] = Change in FT 15 pg/mL, SHBG 400 nmol/L
# [37] = Change in FT 15 pg/mL, SHBG 600 nmol/L
# [38] = Change in FT 15 pg/mL, SHBG 700 nmol/L
structure (smiles),measurement,setting,value
"C[C@]12CC[C@H]3[C@@H](CCC4=CC(=O)CC[C@@]43C)[C@@H]1CC[C@@H]2O [testosterone, (17)-17-Hydroxyandrost-4-en-3-one]",mean increase in free serum testosterone lower in oral estrogen group than other two groups,[1],approximately 40%
same,mean increase in total serum testosterone greater in oral estrogen group than other two groups,[1]; time-averaged change from baseline,approximately 30%
same,concentration at 3.5 day,"[1]; other: transdermal patch, with Transdermal E2 0.1 mg/day, n=12, read-out: Changes in Free T",0.0042 ± 0.0007 ng/mL
same,concentration at 3.5 day,"[1]; other: transdermal patch, with Transdermal E2 0.1 mg/day, n=12, read-out: Changes in Total T",0.536 ± 0.072 ng/mL
same,concentration at 3.5 day,"[1]; other: transdermal patch, 300 mcg/day, No ERT, n=19, 3.5 day application, read-out: Changes in Total T",0.572 ± 0.044 ng/mL
same,concentration at 3.5 day,"[1]; other: transdermal patch, 300 mcg/day, No ERT, n=19, read-out: Changes in Free T",0.0046 ± 0.0004 ng/mL
same,concentration at 3.5 day,"[1]; po, with Oral CEE 1.25 mg/day, n=13, read-out: Changes in Free T",0.00256 ± 0.0003 ng/mL
same,concentration at 3.5 day,"[1]; po, with Oral CEE 1.25 mg/day, n=13, read-out: Changes in Total T",0.708 ± 0.096 ng/mL
same,Estimated Delivery Rate,[2]; [7],55 µg/day
same,Estimated Delivery Rate,[2]; [8],69 µg/day
same,Estimated Delivery Rate,[2]; [9],74 µg/day
same,Estimated Delivery Rate,[2]; [10],98 µg/day
same,Estimated Delivery Rate,[2]; [11],131 µg/day
same,Estimated Delivery Rate,[2]; [12],155 µg/day
same,Estimated Delivery Rate,[2]; [13],166 µg/day
same,Estimated Delivery Rate,[2]; [14],139 µg/day
same,Estimated Delivery Rate,[2]; [15],172 µg/day
same,Estimated Delivery Rate,[2]; [16],185 µg/day
same,Estimated Delivery Rate,[2]; [17],246 µg/day
same,Estimated Delivery Rate,[2]; [18],328 µg/day
same,Estimated Delivery Rate,[2]; [19],388 µg/day
same,Estimated Delivery Rate,[2]; [20],414 µg/day
same,Estimated Delivery Rate,[2]; [21],277 µg/day
same,Estimated Delivery Rate,[2]; [22],344 µg/day
same,Estimated Delivery Rate,[2]; [23],369 µg/day
same,Estimated Delivery Rate,[2]; [24],492 µg/day
same,Estimated Delivery Rate,[2]; [25],656 µg/day
same,Estimated Delivery Rate,[2]; [26],111 µg/day
same,Estimated Delivery Rate,[2]; [27],828 µg/day
same,Estimated Delivery Rate,[2]; [28],554 µg/day
same,Estimated Delivery Rate,[2]; [29],687 µg/day
same,Estimated Delivery Rate,[2]; [30],739 µg/day
same,Estimated Delivery Rate,[2]; [31],985 µg/day
same,Estimated Delivery Rate,"[2]; Change in FT 10 pg/mL, SHBG 400 nmol/L",1313 µg/day
same,Estimated Delivery Rate,"[2]; Change in FT 10 pg/mL, SHBG 600 nmol/L",1553 µg/day
same,Estimated Delivery Rate,"[2]; Change in FT 10 pg/mL, SHBG 700 nmol/L",1656 µg/day
same,Estimated Delivery Rate,[2]; [32],831 µg/day
same,Estimated Delivery Rate,[2]; [33],1031 µg/day
same,Estimated Delivery Rate,[2]; [34],1108 µg/day
same,Estimated Delivery Rate,[2]; [35],1477 µg/day
same,Estimated Delivery Rate,[2]; [36],1969 µg/day
same,Estimated Delivery Rate,[2]; [37],2330 µg/day
same,Estimated Delivery Rate,[2]; [38],2484 µg/day
same,"sexual function, mood and well-being in comparison to conjugated equine estrogen alone",[3],"improved sexual function, mood and well-being"
same,women with free testosterone level below 6.8 pg/mL,[4],78%
same,women with free testosterone level below 15 pg/mL,[4],97%
same,women with total testosterone levels in excess of 80 ng/dL,[4],73%
same,bioavailability,[4]; women with bioavailable testosterone level below 12.7 ng/dL,68%
same,bioavailability,[4]; women with bioavailable testosterone level below 35 ng/dL,97%
same,K (binding affinity constant for SHBG),[5],1600 10^6 Liter/mole
same,Predicted Changes in Total Testosterone,[6]; [7],9 ng/dL
same,Predicted Changes in Total Testosterone,[6]; [8],12 ng/dL
same,Predicted Changes in Total Testosterone,[6]; [9],14 ng/dL
same,Predicted Changes in Total Testosterone,[6]; [10],23 ng/dL
same,Predicted Changes in Total Testosterone,[6]; [11],37 ng/dL
same,Predicted Changes in Total Testosterone,[6]; [12],49 ng/dL
same,Predicted Changes in Total Testosterone,[6]; [13],55 ng/dL
same,Predicted Changes in Total Testosterone,[6]; [14],21 ng/dL
same,Predicted Changes in Total Testosterone,[6]; [15],31 ng/dL
same,Predicted Changes in Total Testosterone,[6]; [16],35 ng/dL
same,Predicted Changes in Total Testosterone,[6]; [17],57 ng/dL
same,Predicted Changes in Total Testosterone,[6]; [18],92 ng/dL
same,Predicted Changes in Total Testosterone,[6]; [19],123 ng/dL
same,Predicted Changes in Total Testosterone,[6]; [20],137 ng/dL
same,Predicted Changes in Total Testosterone,[6]; [21],43 ng/dL
same,Predicted Changes in Total Testosterone,[6]; [22],61 ng/dL
same,Predicted Changes in Total Testosterone,[6]; [23],69 ng/dL
same,Predicted Changes in Total Testosterone,[6]; [24],113 ng/dL
same,Predicted Changes in Total Testosterone,[6]; [25],184 ng/dL
same,Predicted Changes in Total Testosterone,[6]; [26],245 ng/dL
same,Predicted Changes in Total Testosterone,[6]; [27],273 ng/dL
same,Predicted Changes in Total Testosterone,[6]; [28],85 ng/dL
same,Predicted Changes in Total Testosterone,[6]; [29],123 ng/dL
same,Predicted Changes in Total Testosterone,[6]; [30],139 ng/dL
same,Predicted Changes in Total Testosterone,[6]; [31],226 ng/dL
same,Predicted Changes in Total Testosterone,[6]; [32],128 ng/dL
same,Predicted Changes in Total Testosterone,[6]; [33],184 ng/dL
same,Predicted Changes in Total Testosterone,[6]; [34],208 ng/dL
same,Predicted Changes in Total Testosterone,[6]; [35],339 ng/dL
same,Predicted Changes in Total Testosterone,[6]; [36],553 ng/dL
same,Predicted Changes in Total Testosterone,[6]; [37],736 ng/dL
same,Predicted Changes in Total Testosterone,[6]; [38],820 ng/dL
same,concentration at 3.5 day,[6]; 1313 mcg/day,3.68 ng/mL
same,concentration at 3.5 day,[6]; 1553 mcg/day,4.9 ng/mL
same,concentration at 3.5 day,[6]; 1656 mcg/day,5.47 ng/mL
same,concentration at 3.5 day,[6]; 2484 mcg/day,8.2 ng/mL
